In patent publication US11873290B2, “Pyridazinone compounds and uses thereof” (Edgewise Therapeutics, Inc., priority 2018, dated 2024):
pIC50: −log10 of the molar value.

The compounds below were run against skeletal myofibrils (myosin ATPase activity) (assay: Skeletal Myofibril ATPase Assay). Conditions: PK-LDH coupled, absorbance at 340 nm.
Assay type: biochemical
Description: Overview: Myosin ATPase activity is assessed by using a coupled reaction system, in which ADP generated by the myosin ATPase function is coupled to the disappearance of NADH through the pyruvate kinase/lactate dehydrogenase (PK-LDH) system. Myosin ATPase activity produces ADP, which is used as a substrate for PK to produce pyruvate and regenerate ATP. The pyruvate is then used as a substrate by LDH to oxidize NADH to NAD+. The rate of the reaction is monitored through the time-dependent disappearance of NADH using absorbance at 340 nm. Inhibition of ATPase activity by the assayed compounds is indicated by a reduced rate of NADH loss, relative to vehicle-treated controls, over the experimental time window. To assess the selectivity of the assayed compounds for skeletal myofibrils, the compounds are counter-screened in cardiac myofibrils.
Materials: The following stock solutions and reagents were used in the Skeletal Myofibril ATPase Assay:
Stock Solutions of pCa buffer. Combine PIPES, CaCl2, and EGTA solutions with 70 mL of water. Adjust pH to 7.0 and bring final volume to 100 mL.
Skeletal Myofibril ATPase Assay Procedure: BSA, ATP, NADH, PEP, and DTT solutions were thawed at room temperature, then transferred to ice. Pellet-frozen myofibrils (approximately twice the required volume) were transferred into a sufficiently large tube and capped. Myofibrils were thawed by rolling in a water bath for approximately 15 min at room temperature and cooled on ice. Buffers A and B were prepared by adjusting volumes as necessary for required number of wells and stored on ice. 0.5 μL of the compounds to be assayed were added into wells of a 384-well plate. Buffers A and B were mixed by inversion immediately prior to use, then 25 μL of each was dispensed using a Multidrop dispenser (Buffer A first, then Buffer B). The absorbance within the wells was measured at 340 nm, using a kinetic protocol in which the wells are read every 1.5-2 min for 1 h. The reaction rate was qualitatively assessed by subtracting the minimum absorbance value from the maximum value for each well, using either the SoftMax Pro plate reader software or a spreadsheet program such as Excel. Using GraphPad Prism 8.0, the data was normalized, with 100% activity defined as the absorbance change in the 1% DMSO vehicle wells and 0% assigned to no change in absorbance over the course of the experiment. The normalized data were fit to a variable-slope four-parameter logistic model, constraining the bottom to be 0 or greater. Compounds of Table 1 to 4 were tested and results of the assay appear in Table 5 herein. A=IC50 is less than or equal to 10 μM; B=IC50 is greater than 10 μM and less than 100 μM; C=IC50 is greater than 100 μM; […].

Compound	pIC50
O=c1ccc(-c2cnc(OCC(F)(F)F)nc2)nn1Cc1cc(CO)no1 [Compound 43, 2-((3-(hydroxymethyl)isoxazol-5-yl)methyl)-6-(2-(2,2,2-trifluoroethoxy)pyrimidin-5-yl)pyridazin-3(2H)-one]	4.00 to 5.00
O=c1ccc(-c2cnc(OCC(F)(F)F)nc2)nn1Cc1cncc(Cl)c1 [Compound 1, 2-((5-chloropyridin-3-yl)methyl)-6-(2-(2,2,2-trifluoroethoxy)pyrimidin-5-yl)pyridazine-3(2H)-one]	> 5.00
Cc1ncc(Cn2nc(-c3cnc(OCC(F)(F)F)nc3)ccc2=O)s1 [Compound 61, 2-((2-methylthiazol-5-yl)methyl)-6-(2-(2,2,2-trifluoroethoxy)pyrimidin-5-yl)pyridazin-3(2H)-one]	> 5.00
Cc1ccc(-c2ccc(=O)n(Cc3nc(-c4ccccc4C)no3)n2)cc1 [Compound 312, 6-(p-tolyl)-2-((3-(o-tolyl)-1,2,4-oxadiaxol-5-yl)methyl)pyridazin-3(2H)-one]	> 5.00
CN(CC(F)(F)F)c1ncc(-c2ccc(=O)n(Cc3cncc(F)c3)n2)cn1 [Compound 50, 2-((5-fluoropyridin-3-yl)methyl)-6-(2-(methyl(2,2,2-trifluoroethyl)amino)pyrimidin-5-yl)pyridazin-3(2H)-one]	> 5.00
O=c1ccc(-c2ccc(OC(F)F)nc2)nn1Cc1cccnc1 [Compound 10]	4.00 to 5.00
Cc1ncc(Cn2nc(-c3cnc(OCC(C)C)nc3)ccc2=O)s1 [Compound 130, 6-(2-isobutoxypyrimidin-5-yl)-2-((2-methylthiazol-5-yl)methyl)pyridazine-3(2H)-one]	> 5.00
O=c1ccc(-c2cnc(NC34CC(C3)C4)nc2)nn1Cc1cncc(Cl)c1 [Compound 75, 6-(2-(bicyclo[1.1.1]pentan-1-ylamino)pyrimidin-5-yl)-2-((5-chloropyridin-3-yl)methyl)pyridazin-3(2H)-one]	> 5.00
CCOC(=O)c1cc(Cn2nc(-c3cnc(OCC(F)(F)F)nc3)ccc2=O)on1 [Compound 37, ethyl 5-((6-oxo-3-(2-(2,2,2-trifluoroethoxy)pyrimidin-5-yl)pyridazin-1(6H)-yl)methyl) isoxazole-3-carboxylate]	> 5.00
O=c1ccc(-c2cnc(OCC(F)F)nc2)nn1Cc1cncc(F)c1 [Compound 106, 6-(2-(2,2-difluoroethoxy)pyrimidin-5-yl)-2-((5-fluoropyridin-3-yl)methyl)pyridazine-3(2H)-one]	> 5.00
CC(=O)c1cc(Cn2nc(-c3cnc(OCC(F)(F)F)nc3)ccc2=O)on1 [Compound 33, 2-((3-acetylisoxazol-5-yl)methyl)-6-(2-(2,2,2-trifluoroethoxy)pyrimidin-5-yl)pyridazin-3(2H)-one]	> 5.00
O=c1ccc(-c2ccc(OC(F)F)cc2)nn1Cc1nc(C2CC2)no1 [Compound 208, 2((3-cyclopropyl-1,2,4-oxadiazol-5-yl)methyl)-6-(4-(difluoromethoxy)phenyl) pyridazine-3(2H)-one]	> 5.00
Cn1cc(Cn2nc(-c3cnc(OCC(F)(F)F)nc3)ccc2=O)cn1 [Compound 58, 2-((1-methyl-1H-pyrazol-4-yl)methyl)-6-(2-(2,2,2-trifluoroethoxy)pyrimidin-5-yl)pyridazin-3(2H)-one]	> 5.00
COc1ccc(-c2ccc(=O)n(Cc3nc(-c4ccccc4)no3)n2)cc1 [Compound 309, 6-(4-methoxyphenyl)-2-((3-phenyl-1,2,4-oxadiazol-5-yl)methyl)pyridazin-3(2H)-one]	> 5.00
COc1ccc(Cn2nc(-c3cnc(OCC(F)(F)F)nc3)ccc2=O)cn1 [Compound 132, 2-((6-methoxypyridin-3-yl)methyl)-6-(2-(2,2,2-trifluoroethoxy)pyrimidin-5-yl)pyridazine-3(2H)-one]	> 5.00
O=c1ccc(-c2ccc(OC(F)F)cc2)nn1Cc1nnc(C2CC2)s1 [Compound 217, 2-((5-cyclopropyl-1,3,4-thiadiazol-2-yl)methyl)-6-(4-(difluoromethoxy)phenyl)-pyridazin-3(2H)-one]	4.00 to 5.00
O=c1ccc(-c2cnc(OCC(F)(F)F)nc2)nn1Cc1cncc(C(F)(F)F)c1 [Compound 77, 6-(2-(2,2,2-trifluoroethoxy)pyrimidin-5-yl)-2-((5-(trifluoromethyl)pyridin-3-yl)methyl)pyridazin-3(2H)-one]	> 5.00
CSc1cncc(Cn2nc(-c3cnc(OCC(F)(F)F)nc3)ccc2=O)c1 [Compound 111]	> 5.00

Compound	pIC50
CSC(C)COc1ncc(-c2ccc(=O)n(Cc3cncc(F)c3)n2)cn1 (centres unmarked) [Compound 123, 2((5-fluoropyridin-3-yl)methyl)-6-(2-(2-(methylthio)propoxy)pyrimidin-5-yl)pyridazine-3(2H)-one]	> 5.00
O=c1[nH]nc(Cn2nc(-c3ccc(OC(F)F)cc3)ccc2=O)o1 [Compound 234, 5-((3-(4-(difluoromethoxy)phenyl)-6-oxopyridazin-1(6H)-yl)methyl)-1,3,4-oxadiazol-2(3H)-one]	< 4.00
COc1ccc(-c2ccc(=O)n(Cc3nc(-c4ccc(OC)cc4)no3)n2)cc1 [Compound 310, 6-(4-methoxyphenyl)-2-((3-(4-methoxyphenyl)-1,2,4-oxadiazol-5-yl)methyl)pyridazin-3(2H)-one]	> 5.00
Cc1noc(Cn2nc(-c3cnc(OCC(F)(F)F)nc3)ccc2=O)c1C [Compound 49, 2-((3,4-dimethylisoxazol-5-yl)methyl)-6-(2-(2,2,2-trifluoroethoxy)pyrimidin-5-yl)pyridazin-3(2H)-one]	< 4.00
O=c1ccc(-c2cnc(OCC(F)(F)F)nc2)nn1Cc1cnc(C2CCC2)s1 [Compound 122, 2-((2-cyclobutylthiazol-5-yl)methyl)-6-(2-(2,2,2-trifluoroethoxy)pyrimidin-5-yl)pyridazine-3(2H)-one]	> 5.00
Cc1ncc(Cn2nc(-c3cnc(OCC(F)(F)F)nc3)ccc2=O)cc1Cl [Compound 87, 2-((5-chloro-6-methylpyridin-3-yl)methyl)-6-(2-(2,2,2-trifluoroethoxy)pyrimidin-5-yl)pyridazin-3(2H)-one]	> 5.00
CSCCOc1ncc(-c2ccc(=O)n(Cc3cncc(F)c3)n2)cn1 [Compound 102]	> 5.00
CC(C)(F)COc1ncc(-c2ccc(=O)n(Cc3cncc(F)c3)n2)cn1 [Compound 121, 6-(2-(2-fluoro-2-methylpropoxy)pyrimidin-5-yl)-2-((5-f1uoropyridin-3-yl)methyl)pyridazine-3(2H)-one]	> 5.00
O=c1ccc(-c2cnc(OCC(F)(F)F)nc2)nn1Cc1cncs1 [Compound 59, 2-(thiazol-5-ylmethyl)-6-(2-(2,2,2-trifluoroethoxy)pyrimidin-5-yl)pyridazin-3(2H)-one]	> 5.00
N#Cc1cncc(Cn2nc(-c3ccc(OC(F)F)nc3)ccc2=O)c1 [Compound 57, 5-((3-(6-(difluoromethoxy)pyridin-3-yl)-6-oxopyridazin-1(6H)-yl)methyl)nicotinonitrile]	4.00 to 5.00
O=c1ccc(-c2cnc(OCC(F)(F)F)nc2)nn1Cc1cc(F)c[n+]([O-])c1 [Compound 82, 3-fluoro-5-((6-oxo-3-(2-(2,2,2-trifluoroethoxy)pyrimidin-5-yl)pyridazin-1(6H)-yl)methyl) pyridine 1-oxide]	4.00 to 5.00
O=c1ccc(-c2ccc(OC(F)F)cc2)nn1Cc1ccncn1 [Compound 225, 6-(4-(difluoromethoxy)phenyl)-2-(pyrimidin-4-ylmethyl)pyridazin-3(2H)-one]	< 4.00
CCOc1ccc(-c2ccc(=O)n(Cc3nc(-c4cccs4)no3)n2)cc1 [Compound 308, 6-(4-ethoxyphenyl)-2-((3-(thiophen-2-yl)-1,2,4-oxadiazol-5-yl)methyl)pyridazin-3(2H)-one]	> 5.00
O=c1ccc(-c2cnc(OCC(F)(F)F)nc2)nn1Cc1cnc(C2CC2)s1 [Compound 100, 2-((2-cyclopropylthiazol-5-yl)methyl)-6-(2-(2,2,2-trifluoroethoxy)pyrimidin-5-yl)pyridazine-3(2H)-one]	> 5.00
O=c1ccc(-c2ccc(OC(F)F)cc2)nn1Cc1nnc(-c2ccccc2)o1 [Compound 212, 6-(4-(difluoromethoxy)phenyl)-2-((5-phenyl-1,3,4-oxadiazol-2-yl)methyl)pyridazin-3(2H)-one]	4.00 to 5.00
O=c1ccc(-c2ccc(OC(F)F)cc2)nn1Cc1nnc(C2CC2)o1 [Compound 219]	4.00 to 5.00
O=c1ccc(-c2ccc(OC(F)F)cc2)nn1Cc1cc(C2CC2)no1 [Compound 206, 2-((3-cyclopropylisoxazol-5-yl)methyl)-6-(4-(difluoromethoxy)phenyl) pyridazine-3(2H)-one]	> 5.00
